Results as given in patent US10196390B2, “TYK2 inhibitors and uses thereof” (Nimbus Lakshmi, Inc., priority 2014, dated 2019).
Where two headings read alike, the source gives them in different places.

What was measured:
TYK2 = TYK2 (Homo sapiens (Human), UniProt P29597); experiment: Tyk2 activity inhibition assay (radioactive kinase assay / Caliper assay); format: biochemical
In short: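 Radiometric format: TYK2 with peptide substrate (20 μM) and 33P-ATP at 10 μM in HEPES pH 7.5, 1% DMSO, 120 min at room temp, P81 paper capture. Caliper mobility-shift format: TYK2 9.75 nM, peptide 30 at 3 uM, ATP 16 uM (also 1 mM), 25 min at 28° C.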

Tyk2-pSTAT4 = experiment: IL-12 induced pSTAT4 in human PBMC; format: cell-based; settings: read-out: Tyk2-pSTAT4 EC50
In short: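 PBMC (200,000 cells/well) in serum-containing medium were preincubated with compound for 1 hr at 37 C, final DMSO 0.1%. Stimulation with 1.7 ng/mL IL-12 (final) for 30 minutes. pSTAT4 and total STAT4 were measured in lysates by MSD.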

JAK2-pSTAT5 = experiment: GM-CSF induced pSTAT5 in human PBMC; format: cell-based; settings: read-out: JAK2-pSTAT5 EC50
JAK2 = JAK2 (Homo sapiens (Human), UniProt O60674); experiment: JAK2 activity inhibition assay (radioactive kinase assay / Caliper assay); format: biochemical; settings: read-out: JAK2 Ki
Chain of JAK2 (O60674 whole entry): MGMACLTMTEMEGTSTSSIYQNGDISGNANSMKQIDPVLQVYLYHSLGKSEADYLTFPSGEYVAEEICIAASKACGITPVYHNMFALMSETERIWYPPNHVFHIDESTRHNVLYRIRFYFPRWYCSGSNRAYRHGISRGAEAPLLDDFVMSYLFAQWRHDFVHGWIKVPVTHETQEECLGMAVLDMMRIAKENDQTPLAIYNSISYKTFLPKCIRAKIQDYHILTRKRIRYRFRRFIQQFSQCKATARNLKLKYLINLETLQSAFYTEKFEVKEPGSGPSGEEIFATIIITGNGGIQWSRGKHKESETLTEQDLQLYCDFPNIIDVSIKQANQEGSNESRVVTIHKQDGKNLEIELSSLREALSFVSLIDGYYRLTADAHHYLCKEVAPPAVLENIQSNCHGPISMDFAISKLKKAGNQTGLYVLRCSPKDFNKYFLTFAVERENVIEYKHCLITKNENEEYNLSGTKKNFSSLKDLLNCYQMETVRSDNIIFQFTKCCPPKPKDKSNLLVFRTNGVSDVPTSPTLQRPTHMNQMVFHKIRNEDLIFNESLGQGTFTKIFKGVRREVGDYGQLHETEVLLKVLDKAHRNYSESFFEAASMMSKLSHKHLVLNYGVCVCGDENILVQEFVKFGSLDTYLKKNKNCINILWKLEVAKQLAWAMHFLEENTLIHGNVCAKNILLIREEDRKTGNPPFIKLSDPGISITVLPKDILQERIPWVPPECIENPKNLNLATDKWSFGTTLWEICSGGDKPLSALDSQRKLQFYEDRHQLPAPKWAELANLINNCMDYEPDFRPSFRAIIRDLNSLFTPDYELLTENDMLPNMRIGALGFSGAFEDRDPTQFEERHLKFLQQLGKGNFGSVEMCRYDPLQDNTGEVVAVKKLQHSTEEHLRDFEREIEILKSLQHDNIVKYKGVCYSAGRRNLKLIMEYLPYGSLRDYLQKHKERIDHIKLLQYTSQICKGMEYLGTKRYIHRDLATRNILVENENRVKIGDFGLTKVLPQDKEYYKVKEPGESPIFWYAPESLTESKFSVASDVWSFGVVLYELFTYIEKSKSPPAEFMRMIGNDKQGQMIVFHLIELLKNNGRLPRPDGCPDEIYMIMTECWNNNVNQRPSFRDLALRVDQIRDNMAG
In short: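 Mobility-shift (Caliper) read-out of phosphorylated peptide substrate. Compound diluted in 25 mM HEPES pH 7.5, 0.01% Brij-35, 0.01% Triton, 0.5 mM EGTA; enzyme added, then peptide plus ATP in 10 mM MgCl2. Incubated 25 min at 28° C, stopped with EDTA buffer.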

IL-12 induced IFNγ = experiment: Ex vivo mouse IL-12 induced IFNγ studies; format: in vivo, C57/BL6 mice; settings: ex vivo mouse model, doses of ≤10 mg/kg
Procedure: C57/BL6 mice were given a single oral dose of either vehicle or different doses of compound at a volume of 10 mL/kg. 30 minutes to 1 hour after dosing, animals were euthanized and blood was collected via vena cava into sodium heparin blood collection tubes and inverted several times. Blood was then plated on anti-CD3 coated plates and stimulated with 2 ng/ml of mouse IL-12 in RPMI media for 24 hours at 37° C. in humidified incubator with 5% CO2. At the end of the incubation, blood was centrifuged at 260 g for 5 minutes to collect supernatant. IFNγ concentration in the supernatant was determined with mouse IFNγ MSD kit per manufacture's instruction (Meso Scale Discovery). At the time of the blood collection, plasma was collected for drug level analysis by LC-MS/MS.

IL-12/IL-18 induced IFNγ = experiment: Acute mouse model for IL-12/IL-18 induced IFNγ in serum; format: in vivo, C57BL/6 mice; settings: in mice, efficacious dose of 30 mg/kg SC
Procedure: C57BL/6 mice mice are dosed PO or SC with test compound at various doses or vehicle (n=9 or 10 per group) and then, 30 minutes later, injected IP with 10 ng IL-12 and 1 μg IL-18. Three hours after IL-12/IL-18 injection, mice were bled and serum isolated. Concentration of cytokines in serum were determined using CBA analysis.

[1] = IL-12 induced pSTAT4, human PBMC
[2] = GM-CSF induced pSTAT5, human PBMC

Chain of TYK2 (P29597 whole entry): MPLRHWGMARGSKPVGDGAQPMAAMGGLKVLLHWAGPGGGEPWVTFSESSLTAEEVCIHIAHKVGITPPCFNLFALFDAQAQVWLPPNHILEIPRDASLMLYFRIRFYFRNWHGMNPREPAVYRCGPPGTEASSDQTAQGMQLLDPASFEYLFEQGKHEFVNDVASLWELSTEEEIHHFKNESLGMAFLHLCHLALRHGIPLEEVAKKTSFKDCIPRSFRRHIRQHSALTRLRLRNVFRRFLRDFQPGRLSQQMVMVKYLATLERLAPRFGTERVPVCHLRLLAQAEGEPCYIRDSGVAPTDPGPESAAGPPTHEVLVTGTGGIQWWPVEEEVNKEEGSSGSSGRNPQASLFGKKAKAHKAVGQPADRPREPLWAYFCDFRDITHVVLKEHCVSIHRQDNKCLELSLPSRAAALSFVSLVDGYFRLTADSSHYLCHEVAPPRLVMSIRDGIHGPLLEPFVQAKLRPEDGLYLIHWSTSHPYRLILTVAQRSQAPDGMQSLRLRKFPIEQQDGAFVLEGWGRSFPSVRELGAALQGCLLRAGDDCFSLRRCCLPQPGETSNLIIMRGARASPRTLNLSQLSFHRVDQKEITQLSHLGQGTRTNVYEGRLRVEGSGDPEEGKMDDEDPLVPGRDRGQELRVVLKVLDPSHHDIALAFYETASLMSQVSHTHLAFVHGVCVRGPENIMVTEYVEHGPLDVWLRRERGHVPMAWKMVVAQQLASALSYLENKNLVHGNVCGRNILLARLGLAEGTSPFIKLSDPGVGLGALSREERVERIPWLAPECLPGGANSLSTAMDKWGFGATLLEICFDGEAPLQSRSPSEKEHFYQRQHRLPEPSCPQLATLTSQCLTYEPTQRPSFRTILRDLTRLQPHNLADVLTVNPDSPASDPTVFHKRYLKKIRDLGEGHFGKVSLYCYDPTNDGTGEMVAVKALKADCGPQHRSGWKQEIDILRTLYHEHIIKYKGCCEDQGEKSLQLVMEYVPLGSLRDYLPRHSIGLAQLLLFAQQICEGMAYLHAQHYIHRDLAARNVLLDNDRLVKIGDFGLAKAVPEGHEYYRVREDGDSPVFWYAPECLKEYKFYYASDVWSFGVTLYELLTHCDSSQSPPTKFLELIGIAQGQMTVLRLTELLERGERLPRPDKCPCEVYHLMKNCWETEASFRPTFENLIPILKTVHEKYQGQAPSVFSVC

| SMILES | Ki (TYK2) [nM] | EC50 (Tyk2-pSTAT4; Homo sapiens, PBMC) [nM] | EC50 (JAK2-pSTAT5; Homo sapiens, PBMC) [nM] | Ki (JAK2) [nM] | IL-12 induced IFNγ production (IL-12 induced IFNγ) | IL-12/IL-18 induced IFNγ production in vivo (IL-12/IL-18 induced IFNγ) | EC50 (Tyk2-pSTAT4; [1]) [nM] | EC50 (JAK2-pSTAT5; [2]) [nM] |
| --- | --- | --- | --- | --- | --- | --- | --- | --- |
| CCNC(=O)c1ccc(Nc2cc(-c3c(F)cccc3F)nc3c2C(=O)NC3)nc1 [Compound I-136, 6-((2-(2,6-difluorophenyl)-5-oxo-6,7-dihydro-5H-pyrrolo[3,4-b]pyridin-4-yl)amino)-N-ethylnicotinamide] | < 10 | < 2000 | < 2000 | 10 to 100 | significantly inhibit |  |  |  |
| CCNC(=O)Cc1ccc(Nc2nc(-c3c(F)cccc3F)nc3c2C(=O)NC3)cc1 [Compound I-80, 2-(4-((2-(2,6-difluorophenyl)-5-oxo-6,7-dihydro-5H-pyrrolo[3,4-d]pyrimidin-4-yl)amino)phenyl)-N-ethylacetamide] | < 10 | < 2000 | > 20000 | 100 to 1000 |  | inhibited |  |  |
| CC(C)(C)NC(=O)c1ccc(Nc2cc(-c3c(F)cccc3F)nc3c2C(=O)NC3)nc1 [Compound I-165, N-(tert-butyl)-6-((2-(2,6-difluorophenyl)-5-oxo-6,7-dihydro-5H-pyrrolo[3,4-b]pyridin-4-yl)amino)nicotinamide] | < 10 |  |  | 10 to 100 | significantly inhibit |  | < 2000 | 2000 to 20000 |
| C[C@H]1COCCN1C(=O)Cc1ccc(Nc2nc(-c3c(F)cccc3F)nc3c2C(=O)NC3)cc1 [Compound I-64, (S)-2-(2,6-difluorophenyl)-4-((4-(2-(3-methylmorpholino)-2-oxoethyl)phenyl)amino)-6,7-dihydro-5H-pyrrolo[3,4-d]pyrimidin-5-one] | < 10 |  |  | 100 to 1000 |  |  | < 2000 | > 20000 |
